# How the values were obtained:
# [1] = test system: Aspergillus fumigatus clinical isolate 117; assay: Antifungal susceptibility testing (MEC, CLSI M38-A2); assay type: cell-based; conditions: clinical isolate 117, fks1 WT
# Procedure: (§1) Minimum effective concentrations (MECs) for A. fumigatus strains were determined according to CLSI document M38-A2 ([48]) and defined as the lowest drug concentration that led to the growth of small, rounded, compact hyphal forms compared to the hyphal growth seen in the drug-free growth control wells. The following drugs (supplier) were tested: caspofungin (Merck & Co., Inc.), micafungin (Astellas Pharma US, Inc.), anidulafungin (Pfizer Inc.), itraconazole (Sigma-Aldrich), voriconazole (Pfizer Inc.), and amphotericin B (Sigma-Aldrich). In addition, rezafungin and ibrexafungerp were obtained from Cidara Therapeutics and Scynexis Inc., respectively.
# [2] = test system: Aspergillus fumigatus clinical isolate 32458; assay: as above; assay type: cell-based; conditions: clinical isolate 32458, fks1 WT
# Procedure: as §1
# A. fumigatus ATCC 13073 = assay: as above; assay type: cell-based, Aspergillus fumigatus
# Procedure: as §1
# [3] = test system: A. fumigatus S679P (fks1 Ser-679-Pro mutant); assay: as above; assay type: cell-based, Aspergillus fumigatus; conditions: S679P, fks1 Ser-679-Pro
# Procedure: as §1
# A. fumigatus RG101 = assay: Acute pulmonary aspergillosis model in neutropenic DBA/2 mice, lung fungal burden by qPCR; assay type: in vivo, Aspergillus fumigatus
# Procedure: Resistance of RG101 to CAS in vivo was tested in an acute pulmonary aspergillosis model. Thirty inbred DBA/2 mice were rendered neutropenic and infected with 1 × 10^6 RG101 conidia intratracheally. The mice were then treated with CAS (5 mg/kg of body weight), MFG (5 mg/kg), or vehicle daily for 5 days, and lung burdens were determined using quantitative PCR (qPCR). Details of the experiment are provided in Text S1 in the supplemental material.
# All animal experiments performed were approved by the Rutgers University Institutional Animal Care and Use Committee. Thirty female DBA/2 mice [The Jackson Laboratory, Bar Harbor, ME] were used in the experiment. The mice were housed in cages equipped with HEPA filters and were allowed free access to food and water. To establish neutropenia, mice were immunosuppressed with cyclophosphamide on days -4 (150 mg/kg), -1 and +2 (100 mg/kg) intraperitoneally (ip) and hydrocortisone on day -1 (200 mg/kg) via subcutaneous injection (sc). The animals were given prophylaxis sc ceftazidime (50 mg/kg) on all days to prevent secondary bacterial infections. A. fumigatus RG101 was streaked out from a frozen glycerol stock and cultured on Potato dextrose agar (PDA) slant for 2 days. The spores were harvested in phosphate-buffered saline (PBS) with 0.05% (v/v) Tween 20 and counted in a hemocytometer. The mice were briefly anesthetized IP Ketamine (65 mg/kg)/Xylazine (5 mg/kg) and infected with 1×10^6 spores of RG101 in 25 µL volume via intratracheal instillation. The 30 RG101 infected mice were randomized into following treatment arms for IP treatment: vehicle, CAS (5 mg/kg), and MFG (5 mg/kg). The first treatment was given at 3 h post infection (PI) and continued daily treatments were administered. On day 5 PI, mice were humanely euthanized via CO2 narcosis. Lungs were excised and homogenized in 1 ml of sterile PBS using a 2 ml tube containing ceramic spheres by MP Biomedicals (116913500). Tissue was then homogenized in 20 s bursts in a mini bead beater (MP FastPrep-24) followed by cooling on ice. DNA was then isolated from an aliquot of the lung homogenate (100 μl) using the QIAamp DNA Mini Kit by Qiagen (51304) and analyzed by real-time quantitative PCR (qPCR) using primers specific for A. fumigatus 18S rRNA genes (Wiederhold et al 2004).
# [4] = molecular target: β-(1,3)-D-glucan synthase of RG101 (Aspergillus fumigatus, UniProt Q4WLT4); assay: Glucan synthase kinetic inhibition assay, enzyme from RG101; assay type: biochemical
# Chain of β-(1,3)-D-glucan synthase of RG101 (Q4WLT4 1-1904): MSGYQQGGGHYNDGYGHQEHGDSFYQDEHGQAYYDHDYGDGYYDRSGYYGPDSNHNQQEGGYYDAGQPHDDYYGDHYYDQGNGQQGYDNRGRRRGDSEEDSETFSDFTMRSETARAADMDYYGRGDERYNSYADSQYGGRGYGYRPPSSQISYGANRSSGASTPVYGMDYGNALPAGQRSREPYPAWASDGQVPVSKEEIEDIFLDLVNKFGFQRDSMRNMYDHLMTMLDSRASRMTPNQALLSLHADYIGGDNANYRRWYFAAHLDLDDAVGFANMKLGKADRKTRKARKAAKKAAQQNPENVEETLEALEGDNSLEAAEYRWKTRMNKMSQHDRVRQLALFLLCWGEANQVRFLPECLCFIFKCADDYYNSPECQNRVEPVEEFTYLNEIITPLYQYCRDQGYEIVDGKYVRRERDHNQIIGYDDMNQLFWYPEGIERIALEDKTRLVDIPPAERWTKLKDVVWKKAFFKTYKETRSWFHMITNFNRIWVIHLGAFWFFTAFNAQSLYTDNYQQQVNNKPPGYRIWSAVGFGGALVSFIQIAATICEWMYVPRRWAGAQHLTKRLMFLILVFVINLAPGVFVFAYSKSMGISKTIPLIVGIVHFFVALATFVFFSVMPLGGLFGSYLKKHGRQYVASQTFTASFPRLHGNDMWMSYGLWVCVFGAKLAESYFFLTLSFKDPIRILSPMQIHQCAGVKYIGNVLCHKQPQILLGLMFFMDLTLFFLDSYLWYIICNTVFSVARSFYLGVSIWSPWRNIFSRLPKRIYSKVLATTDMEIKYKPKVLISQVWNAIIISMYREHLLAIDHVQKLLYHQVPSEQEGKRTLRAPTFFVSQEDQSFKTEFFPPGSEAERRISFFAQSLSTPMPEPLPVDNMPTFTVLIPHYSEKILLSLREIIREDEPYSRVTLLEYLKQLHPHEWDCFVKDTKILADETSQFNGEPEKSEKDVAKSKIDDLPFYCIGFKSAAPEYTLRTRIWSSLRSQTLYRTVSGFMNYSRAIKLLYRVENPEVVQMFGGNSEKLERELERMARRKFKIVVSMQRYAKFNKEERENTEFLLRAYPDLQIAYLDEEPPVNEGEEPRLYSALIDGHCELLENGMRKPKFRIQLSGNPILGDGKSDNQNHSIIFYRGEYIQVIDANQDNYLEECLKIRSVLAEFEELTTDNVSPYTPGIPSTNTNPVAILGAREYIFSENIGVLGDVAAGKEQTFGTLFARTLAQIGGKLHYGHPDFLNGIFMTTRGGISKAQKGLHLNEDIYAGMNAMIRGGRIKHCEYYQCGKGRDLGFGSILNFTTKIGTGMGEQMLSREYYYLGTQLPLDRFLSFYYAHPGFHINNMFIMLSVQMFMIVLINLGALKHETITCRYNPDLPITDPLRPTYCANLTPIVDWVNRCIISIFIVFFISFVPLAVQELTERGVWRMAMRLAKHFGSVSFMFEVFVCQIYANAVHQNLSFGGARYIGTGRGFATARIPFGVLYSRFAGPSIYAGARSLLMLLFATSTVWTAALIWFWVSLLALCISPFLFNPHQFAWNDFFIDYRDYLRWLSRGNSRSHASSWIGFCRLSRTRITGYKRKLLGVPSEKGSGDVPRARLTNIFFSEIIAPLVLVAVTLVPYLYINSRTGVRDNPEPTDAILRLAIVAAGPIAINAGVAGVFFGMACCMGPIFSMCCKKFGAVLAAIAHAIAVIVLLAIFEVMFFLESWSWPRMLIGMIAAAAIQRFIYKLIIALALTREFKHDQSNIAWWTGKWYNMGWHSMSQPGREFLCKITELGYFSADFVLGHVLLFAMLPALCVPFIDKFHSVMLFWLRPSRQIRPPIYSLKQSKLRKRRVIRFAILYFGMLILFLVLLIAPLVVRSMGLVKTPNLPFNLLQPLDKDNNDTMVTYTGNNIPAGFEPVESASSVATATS
# Procedure: ATCC 13073 or RG101 was grown in liquid YPD medium at 37°C for 16 h. Partially purified glucan synthase was isolated by the product entrapment method, as previously described ([21]). Sensitivity to echinocandin drugs was measured by glucan synthase assay, using a 96-well multiscreen high-throughput screen filtration system (Millipore Corporation, Bedford, MA) in a final volume of 100 μl. Inhibition of the enzyme by the drug was analyzed after incubation of the enzyme with a radioactive substrate over a broad range of concentrations (0 to 10,000 ng/ml) of echinocandins for 1 h at room temperature. Radioactivity from the enzyme product, β-(1,3)-D-glucan, was measured. Inhibition profiles were determined using a sigmoidal response curve fitting algorithm with GraphPad Prism software (v 7.04).
# To study the effect of lipids on the enzyme, dihydrosphingosine, phytosphingosine, or phytoceramide C2 (Sigma-Aldrich D6783, P2795, and C8105, respectively) was added directly to the assay mixture and coincubated with an echinocandin for 1 h at room temperature.
# [5] = molecular target: β-(1,3)-D-glucan synthase of clinical isolate 117 (Aspergillus fumigatus, UniProt Q4WLT4); assay: Glucan synthase kinetic inhibition assay, enzyme from clinical isolate 117; assay type: biochemical; conditions: enzyme from isolate 117 grown at 4 μg/ml CAS
# Chain of β-(1,3)-D-glucan synthase of clinical isolate 117 (Q4WLT4 1-1904): as above
# [6] = test system: reactive oxygen species (ROS) in A. fumigatus ATCC 13073; assay: ROS production, DCFDA fluorescence assay; assay type: cell-based, Aspergillus fumigatus; conditions: 1 μg/ml, 1 h exposure, compared with other echinocandins
# Procedure: (§2) ROS production in mycelia was measured using a protocol previously described by Blatzer et al. ([51]) with a few changes. Suspensions of 10^4 spores/ml of ATCC 13073 and RG101 were grown in static culture in complete supplement mixture (CSM) medium for 16 h in a 96-well microplate at 37°C. After incubation, the mycelia were washed once with CSM, 10 μM 2′,7′–dichlorofluorescin diacetate (DCFDA) dye was added, and cells were incubated in the dark at 37°C for 30 min. Cells were then washed three times with phosphate-buffered saline (PBS), and a final concentration of 1 μg/ml of each echinocandin in CSM medium was added to different wells. Fluorescence intensity (excitation at 485 nm and emission at 530 nm) was measured for 1 h in a microplate reader (Tecan Infinite M200 Pro). Mycelia stained with DCFDA without any drug were used as a control.
# [7] = test system: reactive oxygen species (ROS) in A. fumigatus RG101; assay: ROS production, DCFDA fluorescence assay; assay type: cell-based, Aspergillus fumigatus; conditions: 1 μg/ml, 1 h exposure, DCFDA, compared with other echinocandins
# Procedure: as §2
# fks1 expression in RG101 = assay: fks1 expression by RT-PCR; assay type: cell-based, Aspergillus fumigatus; conditions: RG101, 16 h in YPD, CAS 1 and 4 μg/ml
# Procedure: Supplementary file : FIG S1 fks1 expression levels in RG101 under uninduced and CAS-induced conditions. RG101 conidia were grown for 16 h in YPD in the absence and presence of CAS (1 and 4 μg/ml), and expression levels of fks1 were compared using reverse transcription-PCR (RT-PCR). […] Download FIG S1, DOCX file, 0.02 MB.
smiles,measurement,setting,value
"CC[C@H](C)C[C@H](C)CCCCCCCCC(=O)N[C@H]1C[C@@H](O)[C@@H](NCCN)NC(=O)[C@@H]2[C@@H](O)CCN2C(=O)[C@H]([C@H](O)CCN)NC(=O)[C@H]([C@H](O)[C@@H](O)c2ccc(O)cc2)NC(=O)[C@@H]2C[C@@H](O)CN2C(=O)[C@H]([C@@H](C)O)NC1=O [CAS, caspofungin]",MEC (minimum effective concentration),[1],16 µg/mL
same,MEC (minimum effective concentration),[2],16 µg/mL
same,"Drug susceptibility testing result, ATCC 13073","A. fumigatus ATCC 13073; 24 h, Fig 1B",0.12 µg/mL
same,MEC (minimum effective concentration),"A. fumigatus ATCC 13073; ATCC 13073, fks1 WT",0.12 µg/mL
same,MEC (minimum effective concentration),[3],16 µg/mL
same,Decrease in lung burden versus vehicle-treated group,"A. fumigatus RG101; RG101, 5 mg/kg daily for 5 days",No significant differences
same,Average fungal lung burden,"A. fumigatus RG101; RG101 intratracheal, 5 mg/kg daily IP for 5 days, qPCR",22.6 ng fungal DNA per lung
same,Loss of sensitivity (IC50 shift) of glucan synthase from RG101 grown with CAS versus without,[4]; RG101 grown in presence vs absence of CAS,4 log orders
same,IC50,[4]; enzyme from RG101 grown at 4 μg/ml CAS,> 9.15 µM
same,IC50,[5],> 9.15 µM
same,ROS levels induced in ATCC 13073,[6],highest levels
same,ROS levels induced in RG101,[7],highest levels
same,"fks1 expression levels, CAS-induced vs uninduced",fks1 expression in RG101,No significant differences
